From patent publication US12157730B2, “Heteroaryl derivative, method for producing same, and pharmaceutical composition comprising same as effective component” (VORONOI INC., priority 2019, dated 2024)

Biological target: T1, Ba/F3 cell EGFR Exon20 ins NPH (Homo sapiens, UniProt P00533, INS773NPH)
T1 construct: expressed in transfected cells; host or cells: Ba/F3
Assay: Ba/F3 cell proliferation suppression, EGFR Exon20 ins NPH
Assay type: cell-based
Conditions: GI50 class; Ba/F3 cell line with NPH inserted at Exon20 of EGFR; 72 hours
Method in brief: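 After 72 h compound exposure (twelve 3-fold steps, 0.3 nM–50 um final), live cells were measured by CellTiter-Glo luminescence and growth expressed as % of control to derive GI50. Cells were seeded at 3000–5000 per well a day earlier; Ba/F3 medium contained IL-3; three repeats.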

| SMILES | Ba/F3 (NPH) Activity |
| --- | --- |
| C=CC(=O)Nc1cc(Nc2cc(N3OCC[C@@H]3c3cccc(Cl)c3C)ncn2)c(OC)cc1N1CCC(N2CCN(C3CC3)[C@H](C)C2)CC1 [Example 152, N-(5-((6-((R)-3-(3-chloro-2-methylphenyl)isoxazolidine-2-yl)pyrimidine-4-yl)amino)-2-(4-((R)-4-cyclopropyl-3-methylpiperazine-1-yl)piperidine-1-yl)-4-methoxyphenyl) acrylamide] | A (GI50 < 50 nM) |
| C=CC(=O)Nc1cc(Nc2cc(N3OCC[C@@H]3c3cccc(C#N)c3)ncn2)c(OC)cc1N1CCC(N2CCN(C3CC3)[C@@H](C)C2)CC1 [Example 125, N-(5-((6-((R)-3-(3-cyanophenyl)isoxazolidine-2-yl)pyrimidine-4-yl)amino)-2-(4-((S)-4-cyclopropyl-3-methylpiperazine-1-yl)piperidine-1-yl)-4-methoxyphenyl) acrylamide] | A (GI50 < 50 nM) |
| C=CC(=O)Nc1cc(Nc2cc(N3OCC[C@@H]3Cc3ccccc3)ncn2)c(OC)cc1N1CCN(C)CC1 [compound 945, N-(5-((6-((S)-3-benzylisoxazolidine-2-yl)pyrimidine-4-yl)amino)-4-methoxy-2-(4-methylpiperazine-1-yl)phenyl)acrylamide] | A (GI50 < 50 nM) |
| C=CC(=O)Nc1cc(Nc2cc(N3OCC[C@@H]3c3ccc(F)cc3)ncn2)c(OC)cc1N1CCC(N2CC[C@@H](N(C)C)C2)CC1 [compound 810, N-(2-(4-((R)-3-(dimethylamino)pyrolidine-1-yl)piperidine-1-yl)-5-((6-((R)-3-(4-fluorophenyl)isoxazolidine-2-yl)pyrimidine-4-yl)amino)-4-methoxyphenyl) acrylamide] | A (GI50 < 50 nM) |
| C=CC(=O)Nc1cc(Nc2cc(N3OCC[C@@H]3c3ccc(F)c(Cl)c3F)ncn2)c(OC)cc1N1CCC(N2C[C@@H]3C[C@H]2CO3)CC1 [compound 637, N-(2-(4-((1S,4S)-2-oxa-5-azabicyclo[2.2.1]heptane-5-yl)piperidine-1-yl)-5-((6-((R)-3-(3-chloro-2,4-difluorophenyl)isoxazolidine-2-yl)pyrimidine-4-yl)amino)-4-methoxyphenyl) acrylamide] | A (GI50 < 50 nM) |
| C=CC(=O)Nc1cc(Nc2cc(N3OCC[C@@H]3c3ccc(F)cc3F)ncn2)c(OC)cc1N1CCC(N2CCN(C(C)=O)CC2)CC1 [compound 427, N-(2-(4-(4-acetylpiperazine-1-yl)piperidine-1-yl)-5-((6-((R)-3-(2,4-difluorophenyl)isoxazolidine-2-yl)pyrimidine-4-yl)amino)-4-methoxyphenyl) acrylamide] | A (GI50 < 50 nM) |
| C=CC(=O)Nc1cc(Nc2cc(N3OCC[C@@H]3c3cccc(Cl)c3C)ncn2)c(OC)cc1N(C)CCN(C)C [compound 583, N-(5-((6-((R)-3-(3-chloro-2-methylphenyl)isoxazolidine-2-yl)pyrimidine-4-yl)amino)-2-((2-(dimethylamino)ethyl)(methyl)amino)-4-methoxyphenyl) acrylamide] | A (GI50 < 50 nM) |
| C=CC(=O)Nc1cc(Nc2cc(N3OCC[C@@H]3c3cccc(Cl)c3Cl)ncn2)c(OC)cc1N1CCN(C2CC2)[C@@H](C)C1 [compound 568, N-(2-((S)-4-cyclopropyl-3-methylpiperazine-1-yl)-5-((6-((R)-3-(2,3-dichlorophenyl)isoxazolidine-2-yl)pyrimidine-4-yl)amino)-4-methoxyphenyl) acrylamide] | A (GI50 < 50 nM) |
| C=CC(=O)Nc1cc(Nc2cc(N3OCC[C@@H]3c3ccc(F)cc3F)ncn2)c(OC)cc1N1CCN(CCN(C)C)CC1 [compound 349, N-(5-((6-((R)-3-(2,4-difluorophenyl)isoxazolidine-2-yl)pyrimidine-4-yl)amino)-2-(4-(2-(dimethylamino)ethyl)piperazine-1-yl)-4-methoxyphenyl) acrylamide] | A (GI50 < 50 nM) |
